Measurements published in ChEMBL document CHEMBL3870329, “Synthesis of peptide nucleic acids (PNA) with a crosslinking agent to RNA and effective inhibition of dicer” (Bioorg Med Chem Lett, 2016).
Activity calls are given as the source filed them. The calls are words filed in the database; no cut-off is given here.

How the values were obtained:
Nucleic Acid [1] = assay: Binding affinity to synthetic 5'-FAM-labelled pre-miR-122 RNA site2 (unknown origin) assessed as heteroduplex formation at 4 uM measured after 2 hrs by denaturing PAGE analysis relative to control; type: nucleic-acid assay
Nucleic Acid [2] = assay: Binding affinity to synthetic 5'-fluorescein-labelled pre-miR-122 RNA site2 (unknown origin) assessed as heteroduplex formation at 4 uM measured after 48 hrs by non-denaturing PAGE analysis relative to control; type: nucleic-acid assay
Nucleic Acid [3] = assay: Binding affinity to synthetic 5'-FAM-labelled pre-miR-122 RNA site2 (unknown origin) assessed as human dicer-mediated digestion of pre-miR-122 RNA preincubated with RNA for 2 days followed by dicer addition measured after 2 hrs by denaturing PAGE analysis; type: nucleic-acid assay
Nucleic Acid [4] = assay: Binding affinity to synthetic 5'-FAM-labelled pre-miR-122 RNA site2 (unknown origin) assessed as inhibition of human dicer-mediated digestion of pre-miR-122 RNA preincubated with RNA for 2 days followed by dicer addition measured after 2 hrs by denaturing PAGE analysis relative to control; type: nucleic-acid assay; conditions: concentration not given here
Nucleic Acid [5] = assay: Binding affinity to 5'-end FAM-tagged GUGGUAACAGUGUGAGGU RNA (unknown origin) assessed as induction of crosslinking by measuring heteroduplex formation at 4 uM measured after 24 hrs by bromophenol blue staining-based denaturing PAGE analysis; type: nucleic-acid assay
Nucleic Acid [6] = assay: Binding affinity to synthetic 5'-FAM-labelled pre-miR-122 RNA site3 (unknown origin) assessed as heteroduplex formation at 4 uM measured after 2 hrs by denaturing PAGE analysis relative to control; type: nucleic-acid assay
Nucleic Acid [7] = assay: Binding affinity to synthetic 5'-fluorescein-labelled pre-miR-122 RNA site3 (unknown origin) assessed as heteroduplex formation at 4 uM measured after 48 hrs by non-denaturing PAGE analysis relative to control; type: nucleic-acid assay
Nucleic Acid [8] = assay: Binding affinity to synthetic 5'-FAM-labelled pre-miR-122 RNA site3 (unknown origin) assessed as human dicer-mediated digestion of pre-miR-122 RNA preincubated with RNA for 2 days followed by dicer addition measured after 2 hrs by denaturing PAGE analysis; type: nucleic-acid assay
Nucleic Acid [9] = assay: Binding affinity to synthetic 5'-FAM-labelled pre-miR-122 RNA site3 (unknown origin) assessed as inhibition of human dicer-mediated digestion of pre-miR-122 RNA by measuring heteroduplex formation preincubated with RNA for 2 days followed by dicer addition measured after 2 hrs by denaturing PAGE analysis relative to control; type: nucleic-acid assay; conditions: concentration not given here
Nucleic Acid [10] = assay: Binding affinity to 5'-end FAM-tagged GCAAACUAUCAAAUCUGUGU RNA (unknown origin) assessed as induction of crosslinking by measuring heteroduplex formation at 4 uM measured after 24 hrs by bromophenol blue staining-based denaturing PAGE analysis; type: nucleic-acid assay
Nucleic Acid [11] = assay: Binding affinity to 5'-end FAM-tagged GACCAAACCCAAUCUGGUU RNA (unknown origin) assessed as induction of crosslinking by measuring heteroduplex formation at 4 uM measured after 24 hrs by bromophenol blue staining-based denaturing PAGE analysis relative to control; type: nucleic-acid assay
Nucleic Acid [12] = assay: Binding affinity to 5'-end FAM-tagged GACCAAGCCCAAUCUGGUU RNA (unknown origin) assessed as induction of crosslinking by measuring heteroduplex formation at 4 uM measured after 24 hrs by bromophenol blue staining-based denaturing PAGE analysis relative to control; type: nucleic-acid assay
Nucleic Acid [13] = assay: Binding affinity to 5'-end FAM-tagged GACCAACCCCAAUCUGGUU RNA (unknown origin) assessed as induction of crosslinking by measuring heteroduplex formation at 4 uM measured after 24 hrs by bromophenol blue staining-based denaturing PAGE analysis relative to control; type: nucleic-acid assay
Nucleic Acid [14] = assay: Binding affinity to 5'-end FAM-tagged GACCAAUCCCAAUCUGGUU RNA (unknown origin) assessed as induction of crosslinking by measuring heteroduplex formation at 4 uM measured after 24 hrs by bromophenol blue staining-based denaturing PAGE analysis relative to control; type: nucleic-acid assay
Nucleic Acid [15] = assay: Binding affinity to 5'-end FAM-tagged GACCAAACCCAATCTGGTT DNA (unknown origin) assessed as induction of crosslinking by measuring heteroduplex formation at 4 uM measured after 24 hrs by bromophenol blue staining-based denaturing PAGE analysis relative to control; type: nucleic-acid assay
Nucleic Acid [16] = assay: Binding affinity to 5'-end FAM-tagged GACCAAGCCCAATCTGGTT DNA (unknown origin) assessed as induction of crosslinking by measuring heteroduplex formation at 4 uM measured after 24 hrs by bromophenol blue staining-based denaturing PAGE analysis relative to control; type: nucleic-acid assay
Nucleic Acid [17] = assay: Binding affinity to 5'-end FAM-tagged GACCAACCCCAATCTGGTT DNA (unknown origin) assessed as induction of crosslinking by measuring heteroduplex formation at 4 uM measured after 24 hrs by bromophenol blue staining-based denaturing PAGE analysis relative to control; type: nucleic-acid assay
Nucleic Acid [18] = assay: Binding affinity to 5'-end FAM-tagged GACCAATCCCAATCTGGTT DNA (unknown origin) assessed as induction of crosslinking by measuring heteroduplex formation at 4 uM measured after 24 hrs by bromophenol blue staining-based denaturing PAGE analysis relative to control; type: nucleic-acid assay
unidentified [19] = assay: Binding affinity to 5'-end FAM-tagged GACCAATCCCAATCTGGTT DNA (unknown origin) assessed as melting temperature at 1.5 uM measured after 5 mins by UV spectrophotometry (reference value: 67.4 degC)
unidentified [20] = assay: Binding affinity to 5'-end FAM-tagged GACCAAUCCCAAUCUGGUU RNA (unknown origin) assessed as melting temperature at 1.5 uM measured after 5 mins by UV spectrophotometry (reference value: 77.1 degC)
Nucleic Acid [21] = assay: Binding affinity to synthetic 5'-FAM-labelled pre-miR-122 RNA site1 (unknown origin) assessed as heteroduplex formation at 4 uM measured after 2 hrs by denaturing PAGE analysis relative to control; type: nucleic-acid assay
Nucleic Acid [22] = assay: Binding affinity to synthetic 5'-fluorescein-labelled pre-miR-122 RNA site1 (unknown origin) assessed as heteroduplex formation at 4 uM measured after 48 hrs by non-denaturing PAGE analysis relative to control; type: nucleic-acid assay
Nucleic Acid [23] = assay: Binding affinity to synthetic 5'-FAM-labelled pre-miR-122 RNA site1 (unknown origin) assessed as human dicer-mediated digestion of pre-miR-122 RNA preincubated with RNA for 2 days followed by dicer addition measured after 2 hrs by denaturing PAGE analysis; type: nucleic-acid assay
Nucleic Acid [24] = assay: Binding affinity to synthetic 5'-FAM-labelled pre-miR-122 RNA site1 (unknown origin) assessed as inhibition of human dicer-mediated digestion of pre-miR-122 RNA preincubated with RNA for 2 days followed by dicer addition measured after 2 hrs by denaturing PAGE analysis relative to control; type: nucleic-acid assay; conditions: concentration not given here
Nucleic Acid [25] = assay: Binding affinity to 5'-end FAM-tagged CACUAUUACCGCAAACUAUC RNA (unknown origin) assessed as induction of crosslinking by measuring heteroduplex formation at 4 uM measured after 24 hrs by bromophenol blue staining-based denaturing PAGE analysis; type: nucleic-acid assay
[26] = Binding affinity to 5'-end FAM-tagged GACACAATCCCAATCTGGTT DNA (unknown origin) assessed as change in melting temperature at 1.5 uM measured after 5 mins by UV spectrophotometry
[27] = Binding affinity to 5'-end FAM-tagged GACGCAATCCCAATCTGGTT DNA (unknown origin) assessed as change in melting temperature at 1.5 uM measured after 5 mins by UV spectrophotometry
[28] = Binding affinity to 5'-end FAM-tagged GACCCAATCCCAATCTGGTT DNA (unknown origin) assessed as change in melting temperature at 1.5 uM measured after 5 mins by UV spectrophotometry
[29] = Binding affinity to 5'-end FAM-tagged GACTCAATCCCAATCTGGTT DNA (unknown origin) assessed as change in melting temperature at 1.5 uM measured after 5 mins by UV spectrophotometry
[30] = Binding affinity to 5'-end FAM-tagged GACACAAUCCCAAUCUGGUU RNA (unknown origin) assessed as change in melting temperature at 1.5 uM measured after 5 mins by UV spectrophotometry
[31] = Binding affinity to 5'-end FAM-tagged GACGCAAUCCCAAUCUGGUU RNA (unknown origin) assessed as change in melting temperature at 1.5 uM measured after 5 mins by UV spectrophotometry
[32] = Binding affinity to 5'-end FAM-tagged GACCCAAUCCCAAUCUGGUU RNA (unknown origin) assessed as change in melting temperature at 1.5 uM measured after 5 mins by UV spectrophotometry
[33] = Binding affinity to 5'-end FAM-tagged GACUCAAUCCCAAUCUGGUU RNA (unknown origin) assessed as change in melting temperature at 1.5 uM measured after 5 mins by UV spectrophotometry

Cc1cn(CC(=O)N(CCNC(=O)CN(CCNC(=O)CN(CCNC(=O)CN(CCNC(=O)CN(CCNC(=O)CN(CCNC(=O)CN(CCNC(=O)CN(CCNC(=O)CN(CCNC(=O)CN(CCNC(=O)CN(CCN)C(=O)Cn2cnc3c(N)ncnc32)C(=O)Cn2cc(C)c(=O)[nH]c2=O)C(=O)Cn2cc(C)c(=O)[nH]c2=O)C(=O)Cn2cnc3c(=O)[nH]c(N)nc32)C(=O)Cn2cc(C)c(=O)[nH]c2=O)C(=O)Cn2ccc(N)nc2=O)C(=O)Cn2cnc3c(N)ncnc32)C(=O)Cn2ccc(N)nc2=O)C(=O)Cn2cnc3c(N)ncnc32)C(=O)Cn2ccc(N)nc2=O)CC(=O)NCCN(CC(=O)NCCN(CC(=O)N[C@@H](CCCNC(=N)N)C(=O)O)C(=O)Cn2ccc(N)nc2=O)C(=O)Cn2ccc(N)nc2=O)c(=O)[nH]c1=O
Activity (Nucleic Acid [1]): 0% | Activity (Nucleic Acid [2]): 28% | Activity (Nucleic Acid [3]): 78% | inhibition (Nucleic Acid [4]): 22% | Activity (Nucleic Acid [5]): Active

Cc1cn(CC(=O)N(CCNC(=O)CN(CCNC(=O)CN(CCNC(=O)CN(CCNC(=O)CN(CCNC(=O)CN(CCN)C(=O)Cn2cnc3c(N)ncnc32)C(=O)Cn2cc(C)c(=O)[nH]c2=O)C(=O)Cn2cnc3c(N)ncnc32)C(=O)Cn2cnc3c(=O)[nH]c(N)nc32)C(=O)Cn2cc(C)c(=O)[nH]c2=O)CC(=O)NCCN(CC(=O)NCCN(CC(=O)NCCN(CC(=O)NCCN(CC(=O)NCCN(CC(=O)NCCN(CC(=O)NCCN(CC(=O)N[C@@H](CCCNC(=N)N)C(=O)O)C(=O)Cn2ccc(N)nc2=O)C(=O)Cn2cnc3c(N)ncnc32)C(=O)Cn2ccc(N)nc2=O)C(=O)Cn2cnc3c(N)ncnc32)C(=O)Cn2cnc3c(=O)[nH]c(N)nc32)C(=O)Cn2cnc3c(N)ncnc32)C(=O)Cn2cc(C)c(=O)[nH]c2=O)c(=O)[nH]c1=O
Activity (Nucleic Acid [6]): 0% | Activity (Nucleic Acid [7]): 75% | Activity (Nucleic Acid [8]): 53% | inhibition (Nucleic Acid [9]): 47% | Activity (Nucleic Acid [10]): Active

C=Cc1nc(N)nc2c1ncn2CC(=O)N(CCNC(=O)CN(CCNC(=O)CN(CCNC(=O)CN(CCNC(C)=O)C(=O)Cn1cnc2c(=O)[nH]c(N)nc21)C(=O)Cn1cc(C)c(=O)[nH]c1=O)C(=O)Cn1cc(C)c(=O)[nH]c1=O)CC(=O)NCCN(CC(=O)NCCN(CC(=O)NCCN(CC(=O)NCCN(CC(=O)NCCN(CC(=O)NCCN(CC(=O)NCCN(CC(=O)N[C@@H](CCCNC(=N)N)C(=O)N[C@@H](CCCNC(=N)N)C(=O)NCC(N)=O)C(=O)Cn1cnc2c(=O)[nH]c(N)nc21)C(=O)Cn1cnc2c(N)ncnc21)C(=O)Cn1cc(C)c(=O)[nH]c1=O)C(=O)Cn1cc(C)c(=O)[nH]c1=O)C(=O)Cn1cnc2c(=O)[nH]c(N)nc21)C(=O)Cn1cnc2c(=O)[nH]c(N)nc21)C(=O)Cn1cnc2c(=O)[nH]c(N)nc21
Activity (Nucleic Acid [11]): 0% | Activity (Nucleic Acid [12]): 4% | Activity (Nucleic Acid [13]): 0% | Activity (Nucleic Acid [14]): 2% | Activity (Nucleic Acid [15]): 0% | Activity (Nucleic Acid [16]): 7% | Activity (Nucleic Acid [17]): 1% | Activity (Nucleic Acid [18]): 3% | Tm (unidentified [19]): 77.3 °C | Tm (unidentified [20]): 83 °C

Cc1cn(CC(=O)N(CCNC(=O)CN(CCNC(=O)CN(CCNC(=O)CN(CCNC(=O)CN(CCNC(=O)CN(CCNC(=O)CN(CCNC(=O)CN(CCN)C(=O)Cn2cnc3c(N)ncnc32)C(=O)Cn2cc(C)c(=O)[nH]c2=O)C(=O)Cn2cnc3c(=O)[nH]c(N)nc32)C(=O)Cn2cnc3c(=O)[nH]c(N)nc32)C(=O)Cn2ccc(N)nc2=O)C(=O)Cn2cnc3c(=O)[nH]c(N)nc32)C(=O)Cn2cc(C)c(=O)[nH]c2=O)CC(=O)NCCN(CC(=O)NCCN(CC(=O)NCCN(CC(=O)NCCN(CC(=O)NCCN(CC(=O)N[C@@H](CCCNC(=N)N)C(=O)O)C(=O)Cn2cnc3c(N)ncnc32)C(=O)Cn2cc(C)c(=O)[nH]c2=O)C(=O)Cn2cnc3c(N)ncnc32)C(=O)Cn2cnc3c(=O)[nH]c(N)nc32)C(=O)Cn2cc(C)c(=O)[nH]c2=O)c(=O)[nH]c1=O
Activity (Nucleic Acid [21]): 0% | Activity (Nucleic Acid [22]): 16% | Activity (Nucleic Acid [23]): 91% | inhibition (Nucleic Acid [24]): 9% | Activity (Nucleic Acid [25]): Active

CSCCc1nc(N)nc2c1ncn2CC(=O)N(CCNC(C)=O)CC(=O)NCCN(CC(=O)NCCN(CC(=O)NCCN(CC(=O)NCCN(CC(=O)NCCN(CC(=O)NCCN(CC(=O)NCCN(CC(=O)NCCN(CC(=O)NCCN(CC(=O)NCCN(CC(=O)NCCN(CC(=O)N[C@@H](CCCNC(=N)N)C(=O)N[C@@H](CCCNC(=N)N)C(=O)NCC(N)=O)C(=O)Cn1cnc2c(=O)[nH]c(N)nc21)C(=O)Cn1cnc2c(N)ncnc21)C(=O)Cn1cc(C)c(=O)[nH]c1=O)C(=O)Cn1cc(C)c(=O)[nH]c1=O)C(=O)Cn1cnc2c(=O)[nH]c(N)nc21)C(=O)Cn1cnc2c(=O)[nH]c(N)nc21)C(=O)Cn1cnc2c(=O)[nH]c(N)nc21)C(=O)Cn1cnc2c(N)ncnc21)C(=O)Cn1cc(C)c(=O)[nH]c1=O)C(=O)Cn1cc(C)c(=O)[nH]c1=O)C(=O)Cn1cnc2c(=O)[nH]c(N)nc21
ΔTm [26]: -2.7 °C | ΔTm [27]: -1.9 °C | ΔTm [28]: -1.7 °C | ΔTm [29]: -1.1 °C | ΔTm [30]: -4.2 °C | ΔTm [31]: -2.1 °C | ΔTm [32]: -2.5 °C | ΔTm [33]: -2.3 °C
